We go through 15 compounds from ChEMBL document CHEMBL1124754, “Hypoxia-selective antitumor agents. 4. Relationships between structure, physicochemical properties, and hypoxia-selective cytotoxicity for nitracrine analogues with varying side chains: the "iminoacridan hypothesis"” (J Med Chem, 1990).

A word on the IC50: it is the concentration that gives 50% inhibition. In general, pKa refers to the negative logarithm of the acid dissociation constant. A low value points to a group that gives up its proton readily.

A short description of data set [1]: Tested for the product of the drug concentration to the exposure time needed to reduce cell survival to 10% of controls using AA8 cells at 10 E 6 /mL in the clonogenic assay. Format: functional, Cricetulus griseus, CHO-AA8.
Data set [2] can be described thus: CT10 (air/N2) ratio of the product of the drug concentration to the exposure time needed to reduce cell survival to 10% of controls using AA8 cells at 10 E 6 /mL in the clonogenic assay. It is filed as functional, Cricetulus griseus, CHO-AA8.
Data set [3] can be described thus: Tested for the concentration of the drug to reduce cell numbers to 50 percent of controls against AA8 cells in the microassay. The conditions noted are these: cho-aa8. Format: functional, cell-based, Cricetulus griseus.
Data set [4] can be described thus: IC50 (air/N2) ratio of the drug to reduce cell numbers to 50 percent of controls using AA8 cells in the microassay. Format: functional, Cricetulus griseus, CHO-AA8.
A short description of data set [5]: Acridine pKa values were determined in aqueous solution at 25 degrees Centigrade by spectrophotometric method. It is filed as physicochemical.
The nature of data set [6]: Hypersensitivity factor, IC50 (AA8) air /IC50 (UV4) in N2. It is filed as functional.
The nature of data set [7]: Hypersensitivity factor, IC50 (AA8) air /IC50 (UV4) in air. Format: functional.
The nature of data set [8]: CT10 (air/N2) ratio of the product of the drug concentration to the exposure time needed to reduce cell survival to 10% of controls using AA8 cells at 10 E 6 /mL in the clonogenic assay; range is 1-2. It is filed as functional, Cricetulus griseus, CHO-AA8.
Data set [9] in a line: CT10 (air/N2) ratio of the product of the drug concentration to the exposure time needed to reduce cell survival to 10% of controls using AA8 cells at 10 E 6 /mL in the clonogenic assay; range is 0.8-1.5. It is filed as functional, Cricetulus griseus, CHO-AA8.

Take `O=[N+]([O-])c1cccc2nc3ccccc3c(NCc3ccccc3)c12`: the CT10 in data set [1] is 9 µM·h. The CT10 ratio in data set [2] is 1.9. It took 380 nM to reach half-maximal inhibition in data set [3] (IC50). Also, the IC50 ratio in [4] came out at 1.2. Further, the pKa in [5] stood at 7.4. Besides, the HF in [6] amounted to 17; in [7], 12.
Regarding `CN(C)CCCCCCNc1c2ccccc2nc2cccc([N+](=O)[O-])c12`, the CT10 in [1] is 0.38 µM·h. Besides, in [2], the CT10 ratio was found to be 6.8. The IC50 in data set [3] came to 11.5 nM. Further, the IC50 ratio in [4] is reported as 1.55. In data set [5], the pKa was found to be 7.4.
Regarding `O=[N+]([O-])c1cccc2nc3ccccc3c(NCCO)c12`, in data set [1], the CT10 amounted to 0.13 µM·h. The CT10 ratio in [2] worked out at 3.2. In data set [3], the 50% inhibitory concentration (IC50) amounted to 11.5 nM. For the same compound, the IC50 ratio in data set [4] is recorded as 1.1. This compound registered a pKa in [5] of 7.2. Also, the HF in data set [6] came out at 18; in data set [7], 15.
As for `O=[N+]([O-])c1cccc2nc3ccccc3c(NCCCO)c12`, in data set [1], the CT10 was determined as 0.43 µM·h. Further, in data set [2], the CT10 ratio is 3. The compound also had an IC50 in data set [3] of 27 nM. Besides, in [4], the IC50 ratio is given as 1.45. Further, in data set [5], the pKa came to 7.55. Further, the HF in [6] stood at 13; in data set [7], 15.
`CC(C)CCNc1c2ccccc2nc2cccc([N+](=O)[O-])c12` had a CT10 in data set [1] of 3.2 µM·h. In addition, in [2], the CT10 ratio was 2.4. In [3], this compound gave an IC50 of 120 nM. The IC50 ratio in [4] is given as 1.13. In [5], this compound returned a pKa of 7.4. The HF in data set [6] turned out to be 16; in data set [7] it was 12.
Take `CN(C)CCCNc1c2ccccc2nc2cccc([N+](=O)[O-])c12` [NITRACRINE]: the CT10 in data set [1] worked out at 0.47 µM·h. The CT10 ratio in data set [2] came out at 9.9. In data set [3], this compound showed an IC50 of 26.3 nM. The IC50 ratio in data set [4] is given as 3.5. Moreover, the pKa in data set [5] amounted to 6.2. Also, the HF in data set [6] is 14.9; in data set [7], 12.9.
Turning to `CNCCCNc1c2ccccc2nc2cccc([N+](=O)[O-])c12`, the CT10 in data set [1] is 0.38 µM·h. Also, in data set [2], the CT10 ratio is 5.9. The compound also returned a half-maximal inhibitory concentration (IC50) in data set [3] of 34 nM. For the same compound, the IC50 ratio in data set [4] was 4.8. This compound also had a pKa in data set [5] of 6.2. Further, the values for the HF in data set [6] and in [7] were 11 and 14, respectively.
With `O=[N+]([O-])c1cccc2nc3ccccc3c(NCCc3ccccc3)c12`, in data set [1], the CT10 came to 2.8 µM·h. Besides, the CT10 ratio in data set [2] is reported as 2.3. In data set [3], this compound yielded a half-inhibitory concentration (IC50) of 122 nM. In addition, the IC50 ratio in data set [4] is on record as 1.3. In [5], this compound gave a pKa of 7.4. Also, the figures for the HF in [6] and in [7] were 15 and 14, respectively.
The compound `CN(C)CCCCNc1c2ccccc2nc2cccc([N+](=O)[O-])c12` came in with a CT10 in data set [1] of 0.46 µM·h. For the same compound, the CT10 ratio in [2] stood at 11.9. This compound came in with an IC50 in data set [3] of 26 nM. The IC50 ratio in data set [4] turned out to be 2.6. In [5], this compound yielded a pKa of 6.9. In addition, the HF came to 29 in data set [6] and 20 in data set [7].
In data set [1], `CN(C)CCNc1c2ccccc2nc2cccc([N+](=O)[O-])c12` returned a CT10 of 1.22 µM·h. The CT10 ratio in data set [2] worked out at 14. The compound also returned a half-maximal inhibitory concentration (IC50) in [3] of 47 nM. For the same compound, the IC50 ratio in data set [4] was determined as 7.4. Moreover, the pKa in data set [5] was 4.9. The HF in data set [6] amounted to 15; in data set [7], 19.
Take `CCCNc1c2ccccc2nc2cccc([N+](=O)[O-])c12`: the CT10 in [1] came out at 0.62 µM·h. In data set [2], the CT10 ratio is 3.4. Half-maximal inhibition in [3] (IC50) required 32 nM. Moreover, the IC50 ratio in data set [4] was 1.42. Moreover, in [5], the pKa stood at 7.2. Besides, the results for the HF in [6] and in [7] were 20 and 11, respectively.
Regarding `Nc1c2ccccc2nc2cccc([N+](=O)[O-])c12`, the CT10 in [1] stood at 3.9 µM·h. Further, the CT10 ratio in [8] amounted to 2. In [3], this compound came in with a 50% inhibitory concentration (IC50) of 3600 nM. The IC50 ratio in data set [4] was 1.02. The same compound yielded a pKa in [5] of 7.3. Moreover, the values for the HF in data set [6] and in [7] were 5.8 and 4.5, respectively.
On to `CNc1c2ccccc2nc2cccc([N+](=O)[O-])c12`, for which, in [1], the CT10 was 0.01 µM·h. Further, the CT10 ratio in data set [9] amounted to 1.5. The same compound showed a concentration for half-maximal inhibition (IC50) in data set [3] of 3.8 nM. In addition, the IC50 ratio in data set [4] was 1.3. In [5], this compound displayed a pKa of 7.2. In addition, the HF in data set [6] and in data set [7] was 11 in each case.
The compound `O=C(O)CCCNc1c2ccccc2nc2cccc([N+](=O)[O-])c12` displayed a CT10 in data set [1] of 50 µM·h. Also, in data set [2], the CT10 ratio came out at 2.5. In addition, the IC50 in data set [3] is 18000 nM. In addition, in [4], the IC50 ratio was 4.2. The HF in data set [6] amounted to 6.6; in data set [7], 6.1.
As to `CN(C)CCCCCNc1c2ccccc2nc2cccc([N+](=O)[O-])c12`, the CT10 in data set [1] was 0.32 µM·h. In addition, the CT10 ratio in data set [2] was 7. Moreover, 15.5 nM corresponded to half-maximal inhibition in data set [3] (IC50). The IC50 ratio in data set [4] is 1.65. For the same compound, in data set [5], the pKa came to 7.4.
